The record followed here is PubChem BioAssay (NCI).

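Results reflect a 48-hour exposure of cells in 96-well plates to compound at five concentrations. Definition used: TGI = concentration required for complete inhibition of growth.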

Common to all, as to test: NCI-60 cell line screen, 48 h
For assay [1], the system named is HCC-2998 colon.
For assay [2], the system named is SK-MEL-28 melanoma.
For assay [3], the system named is A498 renal.
The subject of assay [4] is KM12 colon.
The subject of assay [5] is HCT-15 colon.
Assay [6] concerns M14 melanoma.
Assay [7] deals with COLO 205 colon.
Assay [8] concerns SK-MEL-2 melanoma.
Assay [9] concerns SF-295 CNS.
The test system of assay [10] is MDA-MB-231 breast.
For assay [11], the system named is ACHN renal.
In assay [12] the test system is UACC-257 melanoma.
Assay [13] deals with A549 NSCLC.
Assay [14] relates to DU-145 prostate.
Assay [15] relates to SF-268 CNS.
In assay [16] the test system is UACC-62 melanoma.
In assay [17] the test system is EKVX NSCLC.

`Cc1ccc(C)n1-n1c(-c2ccccc2)n[nH]c1=O`: the TGI in assay [1], in assay [2], in assay [3], in assay [4], in assay [5] and in [6] was more than 100 µM each time. Further, the TGI in assay [7], in assay [8], in assay [9], in assay [10], in assay [11] and in [12] was more than 100 µM throughout. Moreover, the TGI in assay [13], in [14], in assay [15], in assay [16] and in assay [17] was more than 100 µM throughout.

On to `CN(C)c1ccc(C2ON=C(c3ccccc3)N2C23CC4CC(CC(C4)C2)C3)cc1` (stereo unspecified), for which the TGI in assay [1], in [2], in assay [3], in [4], in assay [5] and in [6] was more than 10 µM in each case. The TGI in [7], in [8], in assay [9], in assay [10], in assay [11] and in [12] was more than 10 µM throughout. For the same molecule, the TGI in assay [13], in assay [14], in assay [15], in [16] and in assay [17] was more than 10 µM each time.

Consider `CC(Oc1ccccc1Cl)C(=O)NN1C(=O)CSC1c1ccc(Cl)cc1` (stereo unspecified), for which the TGI in assay [1] was found to be 34.2 µM; in [2] it was 49.2 µM; in assay [3] it was 34.8 µM; in assay [4] it was 36.1 µM; in assay [5] it was 43.8 µM; in [6], 34.5 µM. In addition, the TGI came out at 37.1 µM in assay [7]; 44.9 µM in [8]; 37.8 µM in [9]; 32.7 µM in [10]; 63 µM in assay [11]; 45.1 µM in assay [12]. Moreover, the TGI is 41 µM in [13]; 37.6 µM in assay [14]; 47.6 µM in assay [15]; 34 µM in assay [16]; 71.6 µM in assay [17].

Turning to `O=C(Nn1cnn2c(=O)c3ccccc3nc2c1=O)c1ccccc1`, the TGI in assay [1], in assay [2], in assay [3], in assay [4], in assay [5] and in assay [6] was more than 100 µM throughout. The TGI in [7], in assay [8], in assay [9], in assay [10], in assay [11] and in [12] was more than 100 µM each time. Moreover, the TGI in assay [13], in assay [14], in assay [15], in [16] and in assay [17] was more than 100 µM in each case.

Consider `C=CCn1cnc2c(=O)[nH]c(Nc3ccccc3)nc21`, for which the TGI in assay [1], in assay [2], in assay [3], in assay [4], in [5] and in [6] was more than 100 µM throughout. Besides, the TGI in assay [7], in assay [8], in assay [9], in assay [10], in assay [11] and in [12] was more than 100 µM each time. Moreover, the TGI in assay [13], in assay [14], in assay [15], in [16] and in assay [17] was more than 100 µM each time.

Consider `O=S(=O)(OI(O)CC(F)(F)F)C(F)(F)F`, for which the TGI in [1], in assay [2], in [3], in assay [4], in assay [5] and in assay [6] was more than 100 µM throughout. The TGI in [7], in assay [8], in assay [9], in [10], in assay [11] and in [12] was more than 100 µM in each case. In addition, the TGI in [13], in [14], in assay [15], in assay [16] and in assay [17] was more than 100 µM each time.

On to `CC(=O)Oc1c(C)c2c(c3ccccc13)OC(C)(C)C2`, for which the TGI in assay [1] came out at 32.7 µM; in assay [2] it was 32.9 µM; in assay [3], 38.2 µM; in [4] it was 27.6 µM; in assay [5], 30.6 µM; in assay [6], 30.9 µM. In addition, the TGI in assay [7] was 38.5 µM; in assay [8] it was 34 µM; in assay [9], 30.9 µM; in assay [10] it was 48.6 µM; in assay [11], 31 µM; in [12], 24.6 µM. In addition, the TGI in assay [13] turned out to be 33.9 µM; in assay [14], 31 µM; in [15], 28.8 µM; in assay [16], 30.3 µM; in assay [17], 34 µM.

`CCCCCCCCCc1c(O)c(O)c(CCCCCCCCC)c(CCCCCCCCC)c1CCCCCCCCC`: the TGI in [1], in [2], in [3], in assay [4], in [5] and in assay [6] was more than 100 µM throughout. Also, the TGI in [7], in assay [8], in assay [9], in [10], in assay [11] and in assay [12] was more than 100 µM each time. For the same molecule, the TGI in assay [13], in [14], in [15], in assay [16] and in assay [17] was more than 100 µM each time.
